Laboratory results as given in PubChem BioAssay (NCI).
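In this assay, cells in 96-well plates receive the compound at five concentrations for 48 hours. Endpoints are linearly interpolated between the surrounding concentrations. GI50: concentration for 50% inhibition of growth. At the TGI there is no net growth.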

Key:
Assay in all cases: NCI anticancer screen, dose series, 48 h
SF-539 CNS = tested on: SF-539 CNS
EKVX NSCLC = tested on: EKVX NSCLC
SR leukemia = tested on: SR leukemia
ACHN renal = tested on: ACHN renal
OVCAR-4 ovarian = tested on: OVCAR-4 ovarian
SNB-75 CNS = tested on: SNB-75 CNS
HT29 colon = tested on: HT29 colon
A549 NSCLC = tested on: A549 NSCLC
DU-145 prostate = tested on: DU-145 prostate
SF-295 CNS = tested on: SF-295 CNS

O=C1c2ccccc2-c2ccc(N(Cc3ccc(Br)cc3)Cc3ccc(Br)cc3)cc21
TGI (SF-539 CNS): > 100 µM | TGI (EKVX NSCLC): > 100 µM | TGI (SR leukemia): > 100 µM | TGI (ACHN renal): > 100 µM | TGI (OVCAR-4 ovarian): > 100 µM | TGI (SNB-75 CNS): > 100 µM | TGI (HT29 colon): > 100 µM | TGI (A549 NSCLC): > 100 µM | TGI (DU-145 prostate): > 100 µM | TGI (SF-295 CNS): > 100 µM

COc1ccc(C2C(Cl)C(=O)N2NC(=O)c2ccc(NC(C)=O)cc2)cc1OC (stereo not drawn)
TGI (SF-539 CNS): > 100 µM | TGI (SR leukemia): > 100 µM | TGI (ACHN renal): > 100 µM | TGI (SNB-75 CNS): > 100 µM | TGI (HT29 colon): > 100 µM | TGI (A549 NSCLC): > 100 µM | TGI (SF-295 CNS): > 100 µM

CSc1nc(NC2OC(CO)C(O)C(O)C2O)c(N)c(=O)n1C (stereo not drawn)
TGI (SF-539 CNS): > 100 µM | TGI (EKVX NSCLC): > 100 µM | TGI (OVCAR-4 ovarian): > 100 µM | TGI (SNB-75 CNS): > 100 µM | TGI (HT29 colon): > 100 µM | TGI (A549 NSCLC): > 100 µM | TGI (SF-295 CNS): > 100 µM

O=C(Nc1ccc(-n2cc(-c3ccncc3)c(-c3ccc(O)c(Cl)c3)n2)cc1)c1ccc(Cl)c(Cl)c1
GI50 (SF-539 CNS): 0.656 µM | TGI (SF-539 CNS): 2.25 µM | GI50 (EKVX NSCLC): 30.5 µM | TGI (EKVX NSCLC): > 32.5 µM | GI50 (SR leukemia): 1.19 µM | TGI (SR leukemia): > 32.5 µM | GI50 (ACHN renal): 1.34 µM | TGI (ACHN renal): > 32.5 µM | GI50 (OVCAR-4 ovarian): 2.71 µM | TGI (OVCAR-4 ovarian): > 32.5 µM | GI50 (SNB-75 CNS): 2.64 µM | TGI (SNB-75 CNS): > 32.5 µM | GI50 (A549 NSCLC): 2.87 µM | TGI (A549 NSCLC): > 32.5 µM | GI50 (DU-145 prostate): 3.91 µM | TGI (DU-145 prostate): > 32.5 µM | GI50 (SF-295 CNS): 0.833 µM | TGI (SF-295 CNS): 2.26 µM

CCCCCCCCCCCCCCCc1ccc(C(=O)C[n+]2ccccc2)cc1
GI50 (EKVX NSCLC): 1.82 µM | TGI (EKVX NSCLC): 8.72 µM | GI50 (ACHN renal): 1.01 µM | TGI (ACHN renal): 2.22 µM | GI50 (A549 NSCLC): 0.731 µM | TGI (A549 NSCLC): 2.03 µM | GI50 (DU-145 prostate): 1.2 µM | TGI (DU-145 prostate): 2.44 µM | GI50 (SF-295 CNS): 0.653 µM | TGI (SF-295 CNS): 14.2 µM

CCN(CC)CCSc1nc2c([N+](=O)[O-])cccc2[nH]1
TGI (SF-539 CNS): > 100 µM | TGI (EKVX NSCLC): > 100 µM | TGI (OVCAR-4 ovarian): > 100 µM | TGI (SNB-75 CNS): > 100 µM | TGI (HT29 colon): > 100 µM | TGI (A549 NSCLC): > 100 µM

N=C(N)c1ccc(-c2ccc(-c3ccccc3)o2)cc1
GI50 (SF-539 CNS): 1.65 µM | TGI (SF-539 CNS): 3.38 µM | GI50 (EKVX NSCLC): 2.61 µM | TGI (EKVX NSCLC): 11.8 µM | GI50 (SR leukemia): 1.67 µM | TGI (SR leukemia): 5.29 µM | GI50 (ACHN renal): 1.67 µM | TGI (ACHN renal): 3.26 µM | GI50 (OVCAR-4 ovarian): 1.96 µM | TGI (OVCAR-4 ovarian): 4.9 µM | GI50 (SNB-75 CNS): 1.45 µM | TGI (SNB-75 CNS): 3.43 µM | GI50 (HT29 colon): 2.01 µM | TGI (HT29 colon): 4.51 µM | GI50 (A549 NSCLC): 2.51 µM | TGI (A549 NSCLC): 6.24 µM | GI50 (DU-145 prostate): 2.72 µM | TGI (DU-145 prostate): 7.93 µM

Nc1cccc2cc(S(=O)(=O)Nc3ccc(C(=O)O)cc3)ccc12
TGI (EKVX NSCLC): > 100 µM | TGI (SR leukemia): > 100 µM | TGI (ACHN renal): > 100 µM | TGI (OVCAR-4 ovarian): > 100 µM | TGI (SNB-75 CNS): > 100 µM | TGI (HT29 colon): > 100 µM | TGI (A549 NSCLC): > 100 µM | TGI (DU-145 prostate): > 100 µM | TGI (SF-295 CNS): > 100 µM

O=C(c1no[n+]([O-])c1C(=O)c1csc2ccccc12)c1csc2ccccc12
TGI (SF-539 CNS): 8.36 µM | TGI (EKVX NSCLC): 12.5 µM | TGI (SR leukemia): 0.27 µM | TGI (ACHN renal): 16 µM | TGI (OVCAR-4 ovarian): 7.3 µM | TGI (SNB-75 CNS): 28.5 µM | TGI (HT29 colon): 13.7 µM | TGI (A549 NSCLC): 35.7 µM | TGI (DU-145 prostate): 32.3 µM | TGI (SF-295 CNS): 29 µM

CNC1=C(C)C(=O)C2=C(C1=O)C(COC(N)=O)C1(OC)C3NC3CN21 (stereo not drawn)
TGI (SF-539 CNS): 1.92 µM | TGI (EKVX NSCLC): > 100 µM | TGI (SR leukemia): > 100 µM | TGI (OVCAR-4 ovarian): 25.7 µM | TGI (SNB-75 CNS): 0.971 µM | TGI (HT29 colon): 4.01 µM | TGI (A549 NSCLC): > 100 µM | TGI (SF-295 CNS): 10.5 µM

Cc1ccc(CCCC(=O)O)cc1C
TGI (EKVX NSCLC): > 100 µM | TGI (SR leukemia): > 100 µM | TGI (ACHN renal): > 100 µM | TGI (OVCAR-4 ovarian): > 100 µM | TGI (SNB-75 CNS): > 100 µM | TGI (HT29 colon): > 100 µM | TGI (A549 NSCLC): > 100 µM | TGI (DU-145 prostate): > 100 µM | TGI (SF-295 CNS): > 100 µM

CC(C)=CCC/C(C)=C/CC/C(C)=C/C(O)c1ccccc1 (stereo not drawn)
TGI (EKVX NSCLC): 34.3 µM | TGI (SR leukemia): 44.1 µM | TGI (ACHN renal): 31.2 µM | TGI (OVCAR-4 ovarian): > 10 µM | TGI (HT29 colon): 32.9 µM | TGI (SF-295 CNS): 33.8 µM
